Earlier results, collected in paper PMC9811530 (Experimental and Clinical Endocrinology & Diabetes, 2022).
Like-named read-outs stand apart in the source and are kept apart here.

Columns and labels:
[1] = test system: 11beta-HSD1 in AT; conditions: single dose, 24 h after dosing; cited from earlier work
[2] = molecular target: 11beta-HSD1 in the liver (Homo sapiens, UniProt P28845); conditions: cited from earlier work
Chain of 11beta-HSD1 in the liver (P28845 whole entry): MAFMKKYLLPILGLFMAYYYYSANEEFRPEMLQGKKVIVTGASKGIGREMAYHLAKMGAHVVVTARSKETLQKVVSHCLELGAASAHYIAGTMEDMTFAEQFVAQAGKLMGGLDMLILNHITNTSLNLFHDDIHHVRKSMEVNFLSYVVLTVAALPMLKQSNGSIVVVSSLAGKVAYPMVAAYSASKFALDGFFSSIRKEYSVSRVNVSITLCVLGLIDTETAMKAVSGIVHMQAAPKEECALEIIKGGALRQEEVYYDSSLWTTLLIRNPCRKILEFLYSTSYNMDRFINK

## CC(C)[C@]1(C)SC(=N[C@H]2C[C@@H]3CC[C@H]2C3)NC1=O [AMG 221]
[1]
  11beta-HSD1 inhibition in AT: > 90%

## CCCSc1nc(N2CCC[C@@H](CC(=O)O)C2)ccc1C(=O)NC1CCCCC1 [AZD4017]
[2]; after 9 days
  maximum decrease of the (aTHF+THF)/THE ratio: 92%

## C[C@@H](c1ccc(-c2ccn(C)c(=O)c2)cc1)N1CC[C@](CC(C)(C)O)(c2ccccc2)OC1=O [BI 135585]
[1]
  inhibition of 11beta-HSD1 in AT: 90%

## N#Cc1ccc(-c2ccc(S(=O)(=O)Nc3cccc(N)n3)cc2)cc1 [PF-915275]
[2]; after 14 days of treatment
  maximum decrease of the (aTHF+THF)/THE ratio: 26%
